Reference: US20050058745A1, “Use of Labiatae herb preparations for extending the flavor shelf life of malt beverages” (priority 2003, published 2005)

How the values were obtained:
[1] = DPPH radical scavenging of highly hopped beer during aging at 40° C.; assay type: physicochemical; conditions: for effect on DPPH numbers: beers not treated with air; for effect on DPPH number: beers treated with air
Protocol: The bottle dosing methods used were the same as those described in Example 1. The following samples were made: • 1. 20 ppm Carnosic Acid • 2. 20 ppm Carnosic Acid plus Air • 3. 20 ppm Rosmarinic Acid • 4. 20 ppm Rosmarinic Acid plus Air • 5. 10 ppm Carnosic Acid+10 ppm Rosmarinic Acid • 6. 10 ppm Carnosic Acid+10 ppm Rosmarinic Acid+Air • 7. […] No Additions. Treatments 1 through 8 were put in a temperature regulated room set at 40° C. and maintained at ±1° C. At intervals of Zero time, 3 days, 7 days, 14 days, and 21 days, samples were withdrawn and Redox Potentials were measured by the method outlined in example 4. Color measurements were made using the L, a, b system on a Minolta Spectrophotometer model […], chroma and hue angle color measure units were recorded. DPPH radical scavenging numbers were measured using the following method. A de-ionized-H2O/EtOH buffer solution was prepared by dissolving 250 mg sodium citrate dihydrate and 10 g of absolute ethanol in 250 mL of deionized water. The solution was then titrated with 0.1 N Citric acid (6.404 g/L anhydrous citric acid) a drop at a time to reach a pH of between 4.35 and 4.5. To perform the test, about 0.04 g of DPPH was weighed to the nearest 0.1 mg in a 100 mL volumetric, recording the exact weight of DPPH. The DPPH was dissolved in methanol and methanol was added to bring the volume to the 100 mL mark. The solution was sonicated to facilitate dissolution. The beers to be measured were opened and 12 mL of each was poured into separate 15 mL centrifuge tubes, making sure that the volumes in all tubes were equal. The analyses were done in triplicate for each beer. An extra beer sample served as a spectrophotometer blank. The beer was degassed by centrifuging it for 15 min at 6,000 rpm. Into each of two 25 mL flasks was pipeted 5 mL of the pH 4.5 water-ethanol buffer. The spectrophotometer wavelength was set to 531 nm and a buffered water blank was zeroed. 1.0 mL of DPPH solution was added to the water buffer, which was swirled at the same time a timer was started. Just before 10 minutes had elapsed, the sample was transferred to a cuvette and the absorbance (ABL) was measured. The analysis was duplicated with another buffer. For accuracy it is necessary that great care be taken to add exactly 1 mL reagent. It is also important to swirl (mix) the samples consistently as the assay is sensitive to oxygen and to the amount of reagent used. Degassed beer was used to obtain a baseline at 531 nm. After centrifugation 5 mL of the beer was transferred into the appropriate labeled 25 mL flask. 1.0 mL of DPPH solution was added, the solution was swirled and the timer was started. The Absorbance ([…]) of the beer sample was recorded. This process was repeated for all samples. To eliminate any possible prejudice in order of analysis, samples were analyzed randomly. The following formula was used to calculate the amount of DPPH which reacts with 5 mL of beer: μmol DPPH=((1-[…]/ABL)×(g DPPH/394))×10^6

[2] = DCIP redox potential of highly hopped beer during aging at 40° C.; assay type: physicochemical; set-up: DCIP Redox Value: scale not given here; conditions: for effect on DCIP redox potential: highly hopped beer aged at 40° C.
Protocol: Dr. […] H2SO4 brought to 100 mL in a volumetric flask. Four drops of starch indicator were added, and the DCIP was titrated with 0.01; sodium thiosulfate. The concentration of DCIP in mg/dL was measured by multiplying the mL of titer by 14.5. De-ionized water was added to adjust the final concentration to 1.45 mg/mL. 250 μL of adjusted DCIP was added to the 10 mL of degassed beer, the flask swirled to mix, and a 1 min timer started. The beer/DCIP was poured into a 1 cm cuvette and placed in the spectrophotometer. The absorbance was read at exactly 1 minute. These analyses were done in triplicate and averaged. […] The bottle dosing methods used were the same as those described in Example 1. The following samples were made: • 1. 20 ppm Carnosic Acid • 2. 20 ppm Carnosic Acid plus Air • 3. 20 ppm Rosmarinic Acid • 4. 20 ppm Rosmarinic Acid plus Air • 5. 10 ppm Carnosic Acid+10 ppm Rosmarinic Acid • 6. 10 ppm Carnosic Acid+10 ppm Rosmarinic Acid+Air • 7. […] No Additions. Treatments 1 through 8 were put in a temperature regulated room set at 40° C. and maintained at ±1° C. At intervals of Zero time, 3 days, 7 days, 14 days, and 21 days, samples were withdrawn and Redox Potentials were measured by the method outlined in example 4. Color measurements were made using the L, a, b system on a Minolta Spectrophotometer model […], chroma and hue angle color measure units were recorded. DPPH radical scavenging numbers were measured using the following method. A de-ionized-H2O/EtOH buffer solution was prepared by dissolving 250 mg sodium citrate dihydrate and 10 g of absolute ethanol in 250 mL of deionized water. The solution was then titrated with 0.1 N Citric acid (6.404 g/L anhydrous citric acid) a drop at a time to reach a pH of between 4.35 and 4.5.

[3] = 0 days at 40° C., + Air, 20 ppm (RA + CA: 10 ppm each)
[4] = 0 days at 40° C., no air, 20 ppm (CA + RA: 10 ppm each)
[5] = 3 days at 40° C., + Air, 20 ppm (RA + CA: 10 ppm each)
[6] = 3 days at 40° C., no air, 20 ppm (CA + RA: 10 ppm each)
[7] = 7 days at 40° C., + Air, 20 ppm (RA + CA: 10 ppm each)
[8] = 7 days at 40° C., no air, 20 ppm (CA + RA: 10 ppm each)
[9] = 14 days at 40° C., + Air, 20 ppm (RA + CA: 10 ppm each)
[10] = 14 days at 40° C., no air, 20 ppm (CA + RA: 10 ppm each)
[11] = 21 days at 40° C., + Air, 20 ppm (RA + CA: 10 ppm each)
[12] = 21 days at 40° C., no air, 20 ppm (CA + RA: 10 ppm each)

## CC(C)c1cc2c(c(O)c1O)[C@@]1(C(=O)O)CCCC(C)(C)[C@@H]1CC2 [CA, carnosic acid]
[1]; [3]
  DPPH Number: 53.3 μmol DPPH
[1]; [4]
  DPPH Number: 52.2 μmol DPPH
[1]; [5]
  DPPH Number: 67.2 μmol DPPH
[1]; [6]
  DPPH Number: 69.8 μmol DPPH
[1]; [7]
  DPPH Number: 55.6 μmol DPPH
[1]; [8]
  DPPH Number: 64.7 μmol DPPH
[1]; [9]
  DPPH Number: 61.7 μmol DPPH
[1]; [10]
  DPPH Number: 64.4 μmol DPPH
[1]; [11]
  DPPH Number: 56.5 μmol DPPH
[1]; [12]
  DPPH Number: 60.5 μmol DPPH
[1]
  effect on DPPH numbers: Neither CA nor RA has much impact on DPPH numbers
  effect on DPPH number: preserves the DPPH number in beers that have been treated with air
[2]; [3]
  DCIP Redox Value: 93.8
[2]; [4]
  DCIP Redox Value: 90.6
[2]; [5]
  DCIP Redox Value: 89.1
[2]; [6]
  DCIP Redox Value: 89.1
[2]; [7]
  DCIP Redox Value: 68.9
[2]; [8]
  DCIP Redox Value: 83.5
[2]; [9]
  DCIP Redox Value: 62.1
[2]; [10]
  DCIP Redox Value: 82.3
[2]; [11]
  DCIP Redox Value: 62.9
[2]; [12]
  DCIP Redox Value: 86.9
[2]; no air
  effect on DCIP redox potential: increases the DCIP redox potential of the starting beer
[2]; with added air
  effect on DCIP redox potential: beneficial effect on aged beer that contains added air

## O=C(/C=C/c1ccc(O)c(O)c1)O[C@H](Cc1ccc(O)c(O)c1)C(=O)O [RA, rosmarinic acid]
[1]; [3]
  DPPH Number: 49.9 μmol DPPH
[1]; [4]
  DPPH Number: 51.8 μmol DPPH
[1]; [5]
  DPPH Number: 67.1 μmol DPPH
[1]; [6]
  DPPH Number: 66.3 μmol DPPH
[1]; [7]
  DPPH Number: 57.7 μmol DPPH
[1]; [8]
  DPPH Number: 58.7 μmol DPPH
[1]; [9]
  DPPH Number: 56.3 μmol DPPH
[1]; [10]
  DPPH Number: 63.7 μmol DPPH
[1]; [11]
  DPPH Number: 50.5 μmol DPPH
[1]; [12]
  DPPH Number: 57.5 μmol DPPH
[1]
  effect on DPPH numbers: Neither CA nor RA has much impact on DPPH numbers
  effect on DPPH number: preserves the DPPH number in beers that have been treated with air
[2]; [3]
  DCIP Redox Value: 76.0
[2]; [4]
  DCIP Redox Value: 76.3
[2]; [5]
  DCIP Redox Value: 63.4
[2]; [6]
  DCIP Redox Value: 76.2
[2]; [7]
  DCIP Redox Value: 48.3
[2]; [8]
  DCIP Redox Value: 63.9
[2]; [9]
  DCIP Redox Value: 25.1
[2]; [10]
  DCIP Redox Value: 59.9
[2]; [11]
  DCIP Redox Value: 26.6
[2]; [12]
  DCIP Redox Value: 63.4
[2]; no air
  effect on DCIP redox potential: no effect on the DCIP redox potential
[2]; with added air
  effect on DCIP redox potential: not effective in preserving the DCIP redox potential
